According to patent US7932262B2 (Novartis AG, priority 2006, dated 2011):

Key:
A2780 cells = test: Cell Proliferation Assay (Cell Titer Glo), A2780; format: cell-based; details: Homo sapiens; Cell Proliferation Assay, A2780; read-out: CPEC50 A2780
Procedure, shortened: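 Following a 3-day compound exposure (37° C., 5% CO2) of A2780 or PC3MM cells plated at 1000 per well, viability was measured by Cell Titer Glo luminescence in fresh medium, read 10 min after reagent addition.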

PDK1 kinase = target: T1, PDK1 kinase (Homo sapiens, UniProt O15530); test: PDK1 Kinase Alpha Screen Assay; format: biochemical; details: PDK1 Kinase Alpha Screen Assay; read-out: PDK1 IC50
T1 sequence (O15530 1-556): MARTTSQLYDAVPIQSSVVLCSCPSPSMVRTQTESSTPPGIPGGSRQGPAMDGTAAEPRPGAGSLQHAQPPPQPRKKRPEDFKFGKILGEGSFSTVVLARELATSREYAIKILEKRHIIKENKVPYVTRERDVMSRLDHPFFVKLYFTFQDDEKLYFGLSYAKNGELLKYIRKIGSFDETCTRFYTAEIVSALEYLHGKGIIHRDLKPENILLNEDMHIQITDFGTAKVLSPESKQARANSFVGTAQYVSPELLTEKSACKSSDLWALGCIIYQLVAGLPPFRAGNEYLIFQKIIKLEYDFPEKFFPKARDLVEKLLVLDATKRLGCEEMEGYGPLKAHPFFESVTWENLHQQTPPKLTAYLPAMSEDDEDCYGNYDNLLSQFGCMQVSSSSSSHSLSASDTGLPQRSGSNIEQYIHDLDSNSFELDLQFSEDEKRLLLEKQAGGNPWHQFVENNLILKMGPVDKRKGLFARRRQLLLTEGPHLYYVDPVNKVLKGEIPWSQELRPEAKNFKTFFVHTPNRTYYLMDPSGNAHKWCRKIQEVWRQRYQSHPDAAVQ
Procedure, shortened: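 Detection used AlphaScreen: streptavidin donor and protein A acceptor beads (25 μg/ml each) bridged by a phospho-(Ser/Thr) PKA substrate antibody binding phosphorylated peptide. Reaction: biotin-PDK1-4 peptide (50 nM), ATP (10 uM), PDK1 in pH 7.5 Tris/MgCl2/DTT buffer, 3-18 hours, EDTA-stopped.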

EC50 (A2780 cells)	IC50 (PDK1 kinase)	Structure (SMILES)
< 5 µM	5 to 10 µM	CC(C)Oc1cccc2cnc(Nc3ccc(NC(=O)CN(C)C)cc3)nc12 [Compound 313, 2-(dimethylamino)-N-(4-(8-isopropoxyquinazolin-2-ylamino)phenyl)acetamide]
< 5 µM	< 5 µM	Nc1ccc2cnc(Nc3ccc(S(N)(=O)=O)cc3)nc2c1 [Compound 315, 4-(7-aminoquinazolin-2-ylamino]-benzenesulfonamide]
< 5 µM	< 5 µM	CC(=O)Nc1ccc2cnc(Nc3ccc(S(N)(=O)=O)cc3)nc2c1 [Compound 316, N-(2-(4-sulfamoylphenylamino)quinazolin-7-yl)acetamide]
< 5 µM	< 5 µM	NS(=O)(=O)c1ccc(Nc2ncc3cccc(OCc4ccc5nnsc5c4)c3n2)cc1 [Compound 386, 4-(8-(benzo[d][1,2,3]thiadiazol-6-ylmethoxy)quinazolin-2-ylamino)benzenesulfonamide]
< 5 µM	< 5 µM	NS(=O)(=O)c1ccc(Nc2ncc3cc(Br)cc(O)c3n2)cc1 [Compound 388, 4-(6-bromo-8-hydroxyquinazolin-2-ylamino)benzenesulfonamide]
5 to 10 µM	< 5 µM	NS(=O)(=O)c1ccc(Nc2ncc3cccc(OCCCn4c(=O)[nH]c5ccccc54)c3n2)cc1 [Compound 391, 4-(8-(3-(2-oxo-2,3-dihydro-1H-benzo[d]imidazol-1-yl)propoxy)quinazolin-2-ylamino)benzenesulfonamide]
< 5 µM	< 5 µM	COCCN(C)Cc1cccc2cnc(Nc3ccc(S(N)(=O)=O)cc3)nc12 [Compound 392, 4-(8-(((2-methoxyethyl)(methyl)amino)methyl)quinazolin-2-ylamino)benzenesulfonamide]
< 5 µM	< 5 µM	COc1cccc(Oc2cccc3cnc(Nc4ccc(S(N)(=O)=O)cc4)nc23)c1 [Compound 406, 4-(8-(3-methoxyphenoxy)quinazolin-2-ylamino)benzenesulfonamide]
< 5 µM	< 5 µM	COc1ccc(Oc2cccc3cnc(Nc4ccc(S(N)(=O)=O)cc4)nc23)cc1 [Compound 407, 4-(8-(4-methoxyphenoxy)quinazolin-2-ylamino)benzenesulfonamide]
5 to 10 µM	< 5 µM	N#Cc1ccc(Oc2cccc3cnc(Nc4ccc(S(N)(=O)=O)cc4)nc23)cc1 [Compound 409, 4-(8-(4-cyanophenoxy)quinazolin-2-ylamino)benzenesulfonamide]
< 5 µM	< 5 µM	COc1cccc(Oc2ccc3cnc(Nc4ccc(S(N)(=O)=O)cc4)nc3c2)c1 [Compound 415, 4-(7-(3-methoxyphenoxy)quinazolin-2-ylamino)benzenesulfonamide]
< 5 µM	5 to 10 µM	NS(=O)(=O)c1ccc(Nc2ncc3ccc(Br)c(O)c3n2)cc1 [Compound 421, 4-(7-bromo-8-hydroxyquinazolin-2-ylamino)benzenesulfonamide]
5 to 10 µM	< 5 µM	CNS(=O)(=O)Cc1ccc(Nc2ncc3cccc(OC)c3n2)cc1 [Compound 498, 1-(4-(8-methoxyquinazolin-2-ylamino)phenyl)-N-methylmethanesulfonamide]
5 to 10 µM	< 5 µM	CC(C)Oc1cccc2cnc(Nc3ccc(S(=O)(=O)N4CCN(C)CC4)cc3)nc12 [Compound 499, 8-isopropoxy-N-(4-(4-methylpiperazin-1-ylsulfonyl)phenyl)quinazolin-2-amine]
< 5 µM	< 5 µM	CN(C)CCOc1cccc2cnc(Nc3ccc(C(N)=O)cc3)nc12 [Compound 504, 4-(8-(2-(dimethylamino)ethoxy)quinazolin-2-ylamino)benzamide]
< 5 µM	< 5 µM	NC(=O)c1ccc(Nc2ncc3cccc(OC4CCCC4)c3n2)cc1 [Compound 505, 4-(8-(cyclopentyloxy)quinazolin-2-ylamino)benzamide]
< 5 µM	< 5 µM	CC(C)Oc1cccc2cnc(Nc3ccc(C(N)=O)cc3)nc12 [Compound 506, 4-(8-isopropoxyquinazolin-2-ylamino)benzamide]
